± gives the expanded uncertainty stated by the source.
Test: xn = mol fraction of the nth substance listed
Conditions: Capillary rise

**Q.** Which results are given for CC [ethane] + C?
**A.** surface tension liquid-gas (93.15 K, x2 = 0): 32.9 ± 1.6 mN/m; surface tension liquid-gas (133.15 K, x2 = 0): 25.32 ± 1.3 mN/m; surface tension liquid-gas (133.15 K, x2 = 0.194): 20.74 ± 1 mN/m; surface tension liquid-gas (133.15 K, x2 = 0.414): 16.34 ± 0.82 mN/m; surface tension liquid-gas (133.15 K, x2 = 0.527): 14.45 ± 0.72 mN/m; surface tension liquid-gas (133.15 K, x2 = 0.821): 10.78 ± 0.54 mN/m; surface tension liquid-gas (173.15 K, x2 = 0): 18.26 ± 0.91 mN/m; surface tension liquid-gas (173.15 K, x2 = 0.133): 15.59 ± 0.78 mN/m; surface tension liquid-gas (173.15 K, x2 = 0.139): 15.37 ± 0.77 mN/m; surface tension liquid-gas (173.15 K, x2 = 0.256): 12.87 ± 0.65 mN/m; surface tension liquid-gas (173.15 K, x2 = 0.421): 9.8 ± 0.49 mN/m; surface tension liquid-gas (173.15 K, x2 = 0.429): 9.6 ± 0.48 mN/m; surface tension liquid-gas (173.15 K, x2 = 0.459): 9.07 ± 0.46 mN/m; surface tension liquid-gas (173.15 K, x2 = 0.565): 7.67 ± 0.39 mN/m; surface tension liquid-gas (173.15 K, x2 = 0.587): 7.14 ± 0.36 mN/m; surface tension liquid-gas (173.15 K, x2 = 0.684): 5.98 ± 0.3 mN/m; surface tension liquid-gas (173.15 K, x2 = 0.691): 5.79 ± 0.29 mN/m; surface tension liquid-gas (173.15 K, x2 = 0.793): 4.51 ± 0.23 mN/m; surface tension liquid-gas (173.15 K, x2 = 0.818): 4.29 ± 0.22 mN/m; surface tension liquid-gas (173.15 K, x2 = 0.821): 4.25 ± 0.22 mN/m; surface tension liquid-gas (193.15 K, x2 = 0): 15.01 ± 0.75 mN/m; surface tension liquid-gas (193.15 K, x2 = 0.134): 12.26 ± 0.62 mN/m; surface tension liquid-gas (193.15 K, x2 = 0.16): 11.62 ± 0.58 mN/m; surface tension liquid-gas (193.15 K, x2 = 0.284): 9.34 ± 0.47 mN/m; surface tension liquid-gas (193.15 K, x2 = 0.287): 9.07 ± 0.46 mN/m; surface tension liquid-gas (193.15 K, x2 = 0.395): 7.34 ± 0.37 mN/m; surface tension liquid-gas (193.15 K, x2 = 0.501): 5.47 ± 0.28 mN/m; surface tension liquid-gas (193.15 K, x2 = 0.672): 3.49 ± 0.18 mN/m; surface tension liquid-gas (193.15 K, x2 = 0.685): 3.23 ± 0.17 mN/m; surface tension liquid-gas (213.15 K, x2 = 0): 11.79 ± 0.59 mN/m; surface tension liquid-gas (213.15 K, x2 = 0.024): 11.22 ± 0.56 mN/m; surface tension liquid-gas (213.15 K, x2 = 0.116): 9.57 ± 0.48 mN/m; surface tension liquid-gas (213.15 K, x2 = 0.17): 8.6 ± 0.43 mN/m; surface tension liquid-gas (213.15 K, x2 = 0.238): 7.28 ± 0.37 mN/m; surface tension liquid-gas (213.15 K, x2 = 0.447): 4.11 ± 0.21 mN/m; surface tension liquid-gas (213.15 K, x2 = 0.539): 2.71 ± 0.14 mN/m; surface tension liquid-gas (233.15 K, x2 = 0): 8.77 ± 0.44 mN/m; surface tension liquid-gas (233.15 K, x2 = 0.075): 7.19 ± 0.36 mN/m; surface tension liquid-gas (233.15 K, x2 = 0.143): 6.06 ± 0.31 mN/m; surface tension liquid-gas (233.15 K, x2 = 0.153): 5.89 ± 0.3 mN/m; surface tension liquid-gas (233.15 K, x2 = 0.214): 4.93 ± 0.25 mN/m; surface tension liquid-gas (233.15 K, x2 = 0.228): 4.7 ± 0.24 mN/m; surface tension liquid-gas (233.15 K, x2 = 0.292): 3.63 ± 0.19 mN/m; surface tension liquid-gas (233.15 K, x2 = 0.297): 3.55 ± 0.18 mN/m; surface tension liquid-gas (233.15 K, x2 = 0.362): 2.74 ± 0.14 mN/m; surface tension liquid-gas (233.15 K, x2 = 0.369): 2.58 ± 0.14 mN/m; surface tension liquid-gas (253.15 K, x2 = 0): 5.77 ± 0.29 mN/m; surface tension liquid-gas (253.15 K, x2 = 0.048): 5.17 ± 0.26 mN/m; surface tension liquid-gas (253.15 K, x2 = 0.099): 4.4 ± 0.22 mN/m; surface tension liquid-gas (253.15 K, x2 = 0.145): 3.73 ± 0.19 mN/m; surface tension liquid-gas (253.15 K, x2 = 0.196): 2.98 ± 0.15 mN/m; surface tension liquid-gas (253.15 K, x2 = 0.241): 2.34 ± 0.12 mN/m; surface tension liquid-gas (253.15 K, x2 = 0.242): 2.28 ± 0.12 mN/m; surface tension liquid-gas (263.15 K, x2 = 0): 4.48 ± 0.23 mN/m; surface tension liquid-gas (263.15 K, x2 = 0.048): 3.82 ± 0.2 mN/m; surface tension liquid-gas (263.15 K, x2 = 0.098): 3.15 ± 0.16 mN/m; surface tension liquid-gas (263.15 K, x2 = 0.142): 2.58 ± 0.13 mN/m; surface tension liquid-gas (263.15 K, x2 = 0.185): 2.03 ± 0.11 mN/m; surface tension liquid-gas (273.15 K, x2 = 0): 3.2 ± 0.16 mN/m; surface tension liquid-gas (273.15 K, x2 = 0.035): 2.76 ± 0.14 mN/m; surface tension liquid-gas (273.15 K, x2 = 0.083): 2.19 ± 0.12 mN/m; surface tension liquid-gas (273.15 K, x2 = 0.124): 1.75 ± 0.1 mN/m; surface tension liquid-gas (283.15 K, x2 = 0): 1.96 ± 0.11 mN/m; surface tension liquid-gas (283.15 K, x2 = 0.017): 1.82 ± 0.1 mN/m; surface tension liquid-gas (283.15 K, x2 = 0.045): 1.5 ± 0.08 mN/m; surface tension liquid-gas (283.15 K, x2 = 0.065): 1.33 ± 0.08 mN/m; surface tension liquid-gas (283.15 K, x2 = 0.067): 1.29 ± 0.07 mN/m

**Q.** For C [methane] + CC, which surface tension liquid-gas (93.15 K, x1 = 1) is on record?
**A.** 16.69 ± 0.84 mN/m

**Q.** What about the surface tension liquid-gas (133.15 K, x1 = 1) of the same molecule?
**A.** 8.78 ± 0.44 mN/m

**Q.** And the surface tension liquid-gas (173.15 K, x1 = 1)?
**A.** 2 ± 0.11 mN/m

Source: the NIST ThermoML archive (doi:10.1016/j.fluid.2013.07.008)
